Data set [1] concerns Lactobacillus plantarum Inducia DSM 21379. Kind of data set: Antibiotic resistance, E-test MIC. It counts as cell-based. The following applies: for MIC: Lactiplantibacillus plantarum, DSM21379, read-out: MIC (minimal inhibitory concentration); for MIC (minimal inhibitory concentration): E-test strips, L. plantarum Inducia DSM 21379. The procedure:
Method. Lactobacillus plantarum Inducia DSM 21379 was tested using antibiotic strips of the E-test (AB Biodisk, Solna).

The test system of data set [2] is Control strain L. plantarum DSM 21380. Kind of data set: Antibiotic resistance, E-test MIC, control strain. Format: cell-based, Lactobacillus plantarum. As to conditions: for MIC: Lactiplantibacillus plantarum, DSM21380, E-test strips, read-out: MIC (minimal inhibitory concentration); for MIC (minimal inhibitory concentration): E-test strips.
For data set [3] the following is noted: in vivo, po; cited from earlier work.

Converted amounts (≈) assume the structure as drawn.

`CC1(C)S[C@@H]2[C@H](NC(=O)[C@H](N)c3ccccc3)C(=O)N2[C@H]1C(=O)O` [Ampicillin]: the MIC in data set [1] came out at 0.19 µg/mL (≈ 0.544 µM); in data set [2] it was 0.25 µg/mL (≈ 0.715 µM).

As to `O=C(N[C@H](CO)[C@H](O)c1ccc([N+](=O)[O-])cc1)C(Cl)Cl` [Chloramphenicol], the MIC in data set [1] and in data set [2] was 2 µg/mL (≈ 6.19 µM) each time.

Take `CCC[C@@H]1C[C@@H](C(=O)N[C@@H]([C@H]2O[C@H](SC)[C@H](O)[C@@H](O)[C@H]2O)[C@H](C)Cl)N(C)C1` [Clindamycin]: the MIC in data set [1] turned out to be 0.016 µg/mL (≈ 0.0376 µM); in data set [2], 0.032 µg/mL (≈ 0.0753 µM).

For `CC[C@H]1OC(=O)[C@H](C)[C@@H](O[C@H]2C[C@@](C)(OC)[C@@H](O)[C@H](C)O2)[C@H](C)[C@@H](O[C@@H]2O[C@H](C)C[C@H](N(C)C)[C@H]2O)[C@](C)(O)C[C@@H](C)C(=O)[C@H](C)[C@@H](O)[C@]1(C)O` [Erytromycin], the results for the “MIC (minimal inhibitory concentration)” value in data set [1] and in data set [2] were 0.25 µg/mL (≈ 0.341 µM) and 0.19 µg/mL (≈ 0.259 µM), respectively.

Regarding `NCCCCN` [Putrescine], the “consumed amount absorbed from intestine into bloodstream” value in data set [3] was 20%.

Take `[H]/N=C(/N)N[C@H]1[C@H](O)[C@@H](O)[C@H](O[C@@H]2O[C@@H](C)[C@](O)(C=O)[C@H]2O[C@@H]2O[C@@H](CO)[C@H](O)[C@@H](O)[C@@H]2NC)[C@@H](N/C(N)=N\[H])[C@@H]1O` [Streptomycin]: the MIC is 6 µg/mL (≈ 10.3 µM) in data set [1] and 16 µg/mL (≈ 27.5 µM) in data set [2].

For `CN(C)[C@@H]1C(O)=C(C(N)=O)C(=O)[C@@]2(O)C(O)=C3C(=O)c4c(O)cccc4[C@@](C)(O)[C@H]3C[C@@H]12` [Tetracycline], the MIC in data set [1] was determined as 6 µg/mL (≈ 13.5 µM); in data set [2], 8 µg/mL (≈ 18 µM).

On to Cipro/ofloxacin, for which the “MIC (minimal inhibitory concentration)” value in data set [1] and in data set [2] was 32 µg/mL each time.

Turning to Gentamicin, the figures for the “MIC (minimal inhibitory concentration)” value in data set [1] and in data set [2] were 1 µg/mL and 1.5 µg/mL, respectively.

The values are drawn from patent US20110274789A1, “ISOLATED LACTOBACILLUS PLANTARUM STRAIN INDUCIA DSM 21379 AS PROBIOTIC THAT ENHANCES NATURAL IMMUNITY AND FOOD PRODUCTS AND MEDICINAL PREPARATIONS COMPRISING IT” (priority 2008, published 2011).
